From patent publication US8603527B2, “Pharmaceutical formulations of a substituted diaminopurine” (Signal Pharmaceuticals, LLC, priority 2010, dated 2013)
Like-named read-outs stand apart in the source and are kept apart here.

Assay: Pharmacokinetics of a single ascending oral dose in healthy male subjects
Assay type: in vivo, human
Conditions: for AUC(0-inf) / AUC(0-t) / Cmax / half-life / Vd/F / Tmax: human, in vivo; for Vd/F: read-out: Vz/F
Experimental: Methods: The study was a randomized, double-blind, placebo-controlled, single-ascending-dose trial. Forty-five healthy male subjects were enrolled into 1 of the 5 cohorts (active:placebo=7:2 per cohort). Subjects received single oral doses of 5 mg, 25 mg, 50 mg, 100 mg or 200 mg of unformulated Compound I in a capsule, or matching placebo.

[1] = single oral dose 5 mg, unformulated in capsule, healthy male subjects, geometric mean
[2] = single oral dose 25 mg, unformulated in capsule, healthy male subjects, geometric mean
[3] = single oral dose 50 mg, unformulated in capsule, healthy male subjects, geometric mean
[4] = single oral dose 100 mg, unformulated in capsule, healthy male subjects, geometric mean
[5] = single oral dose 200 mg, unformulated in capsule, healthy male subjects, geometric mean
[6] = male, single oral doses 5-200 mg

Q: Which results are given for `O[C@H]1CC[C@H](Nc2ncc3nc(Nc4c(F)cc(F)cc4F)n([C@H]4CCOC4)c3n2)CC1` [Compound I, 4-((9-((3S)-tetrahydro-3-furanyl)-8-((2,4,6-trifluorophenyl)amino)-9H-purin-2-yl)amino)-trans-cyclohexanol]?
A: AUC(0-inf) [1]: 625 ng·h/mL; AUC(0-t) [1]: 567 ng·h/mL; Cmax [1]: 34.7 ng/mL; half-life [1]: 19.1 h; Vd/F [1]: 221 L; Tmax (single oral dose 5 mg, unformulated in capsule, healthy male subjects, median (min-max), read-out: Tmax): 1.5 h; AUC(0-inf) [2]: 3600 ng·h/mL; AUC(0-t) [2]: 3150 ng·h/mL; Cmax [2]: 163 ng/mL; half-life [2]: 24.1 h; Vd/F [2]: 241 L; Tmax (single oral dose 25 mg, unformulated in capsule, healthy male subjects, median (min-max), read-out: Tmax): 1.5 h; AUC(0-inf) [3]: 7320 ng·h/mL; AUC(0-t) [3]: 6700 ng·h/mL; Cmax [3]: 367 ng/mL; half-life [3]: 20.4 h; Vd/F [3]: 202 L; Tmax (single oral dose 50 mg, unformulated in capsule, healthy male subjects, median (min-max), read-out: Tmax): 2 h; AUC(0-inf) [4]: 13600 ng·h/mL; AUC(0-t) [4]: 10800 ng·h/mL; Cmax [4]: 471 ng/mL; half-life [4]: 27.5 h; Vd/F [4]: 293 L; Tmax (single oral dose 100 mg, unformulated in capsule, healthy male subjects, median (min-max), read-out: Tmax): 2 h; AUC(0-inf) [5]: 26400 ng·h/mL; AUC(0-t) [5]: 23100 ng·h/mL; Cmax [5]: 1430 ng/mL; half-life [5]: 25 h; Vd/F [5]: 273 L; Tmax (single oral dose 200 mg, unformulated in capsule, healthy male subjects, median (min-max), read-out: Tmax): 1.5 h; AUC(0-inf) [6]: 600 to 27000 ng·h/mL; AUC(0-t) [6]: 500 to 24000 ng·h/mL; Cmax [6]: 30 to 1500 ng/mL; half-life [6]: 19 to 28 h; Tmax (male, single oral doses 5-200 mg, unformulated in a capsule, healthy males, read-out: median Tmax): 1.5 to 2 h; Vd/F [6]: 200 to 300 L; urinary excretion of unchanged Compound I (over 72 hrs post-dose, single oral doses): 9-13 % of the administered dose; CLF [1]: 133.36 mL/min; CLF [2]: 115.58 mL/min; CLF [3]: 113.88 mL/min; CLF [4]: 122.89 mL/min; CLF [5]: 126.02 mL/min; CLF (single oral doses 5-200 mg): 100 to 140 mL/min
